Starred links: 1 amine or outer side, 2 acyl side, 3 side chain; linkers in the order of their positions; H or OH if unused. Positions of bridges follow the written chain, without caps; N, C: chain ends. Non-standard residues stand in square brackets, D forms with d. Residues, ends and D or L forms follow the SMILES beside them. Groups on a side chain read outwards from the residue. *: point of attachment. Meglumine = CN(C[C@H](O)[C@@H](O)[C@H](O)[C@H](O)CO)*; Piperazinyl(4-CH2COOH) = O=C(O)CN1CCN(*)CC1; 1Nal = N[C@@H](Cc1cccc2ccccc12)C(=O)O; Gly(NCH2CH2Ph) = O=C(O)CNCCc1ccccc1; 4Pal = N[C@@H](Cc1ccncc1)C(=O)O; CO = O=C([*:1])[*:2]
Tests used:
[1] = target: T1, recombinant human TGF-β1 (Homo sapiens, UniProt P01137); assay: SPR intermolecular interaction test, TGF-β1 immobilized on CM3 sensor chip (Biacore T200); format: binding; conditions: for Kd: Single Cycle Kinetics, human TGF-β1
T1 construct: purchased R&D systems
Description: In this Example, (1) the activity of binding to TGF-β for various peptides consisting of the amino acid sequences set forth in SEQ ID NOs: 2-33 synthesized in Examples 1 to 5 and 7 was evaluated. (2) The activity and selectivity of binding of the peptide consisting of the amino acid sequence set forth in SEQ ID NO: 13 synthesized in Example 2 against two isoforms of TGF-β (TGF-β1 and β2) were checked. For this purpose, the intermolecular interaction of each peptide against TGF-β was tested by surface plasmon resonance (SPR) in the method described below. Specific test methods are described below.
A CM3 sensor chip (Global Life Science Technologies Japan Co., Ltd.) was inserted into a BiacoreT200 (Global Life Science Technologies Japan Co., Ltd.). Three priming runs were performed using running buffer: HBS-EP+ (Global Life Science Technologies Japan Co., Ltd.). The system was then equilibrated at a flow rate of 30 μL/min.
Subsequently, 50 μL of 60 mM EDC solution (Global Life Science Technologies Japan Co., Ltd.) and 50 μL of 650 mM NHS solution (Global Life Science Technologies Japan Co., Ltd.) were mixed. Next, the reaction was carried out at a flow rate of 10 μL/min for 420 seconds. Then, 150 μL of 0.2 μM TGF-β solution diluted in 10 mM acetic acid solution (pH 5.0) was prepared and reacted at a flow rate of 10 μL/min for 420 seconds to immobilize TGF-β on the CM3 sensor chip. TGF-β was human-derived TGF-β1 or β2 (recombinant human TGF-β1, 2) and was obtained from R&D systems. After immobilization, capping was performed by reacting with 1.0 M ethanolamine aqueous solution (Global Life Science Technologies Japan Co., Ltd.) at a flow rate of […] for 420 seconds.
A liquid prepared by dissolving each peptide at 10 mM in DMSO solution was diluted with running buffer to prepare a peptide-dissolved solution at a final concentration of 10 μM. Subsequently, 50 nM, 25 nM, 12.5 nM, 5 nM, and 2.5 nM peptide solutions were prepared. Using the above samples, the kinetics of each peptide against TGF-β was obtained by SPR measurement.
The kinetics evaluation model was Single Cycle Kinetics, and curve fitting was performed using Biacore T200 Evaluation Software Version 3.0 (Global Life Science Technologies Japan Co., Ltd.). The binding of various peptides to TGF-β was evaluated by performing least-squares curve fitting on the obtained sensorgram to calculate the KD value.

[2] = target: T1, recombinant human TGF-β1; assay: SBE reporter assay in SBE reporter-HEK293 cells, TGF-β1 stimulation; format: cell-based; conditions: for inhibition at 62 pM: peptide 0.062 nM; for inhibition at 0.000185 µM: peptide 0.185 nM; for inhibition at 0.00056 µM: peptide 0.56 nM; for inhibition at 0.0017 µM: peptide 1.7 nM; for inhibition at 0.005 µM: peptide 5.0 nM; for inhibition at 0.015 µM: peptide 15.0 nM
Summary of the method: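 SBE luciferase reporter HEK293 cells in 0.5% FBS medium, preincubated 20 min with peptide, then stimulated 18 h with 0.13 nM recombinant human TGF-β1. Luminescence read; inhibition scaled with maximal TGF-β signal as 0% and unstimulated as 100%.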

T1 sequence (P01137 279-390 limits assumed): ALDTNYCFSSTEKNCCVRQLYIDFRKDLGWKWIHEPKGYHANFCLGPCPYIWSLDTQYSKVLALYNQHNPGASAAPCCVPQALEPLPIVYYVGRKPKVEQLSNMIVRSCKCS

| Kd [1] [nM] | inhibition at 62 pM ([2]; TGF-β1 0.13 nM, 18 hours) [%] | inhibition at 0.000185 µM ([2]; TGF-β1 0.13 nM, 18 hours) [%] | inhibition at 0.00056 µM ([2]; TGF-β1 0.13 nM, 18 hours) [%] | inhibition at 0.0017 µM ([2]; TGF-β1 0.13 nM, 18 hours) [%] | inhibition at 0.005 µM ([2]; TGF-β1 0.13 nM, 18 hours) [%] | inhibition at 0.015 µM ([2]; TGF-β1 0.13 nM, 18 hours) [%] | ability of binding to TGF-β1 (in words) [1] | TGF-β1 antagonist / inhibitory activity (in words) ([2]; SBE reporter assay, FIG. 1 and Tables 2 and 3) | inhibition at 75 pM ([2]; peptide 0.075 nM, TGF-β1 0.13 nM, 18 hours) [%] | inhibition at 0.00075 µM ([2]; peptide 0.75 nM, TGF-β1 0.13 nM, 18 hours) [%] | inhibition at 0.0075 µM ([2]; peptide 7.5 nM, TGF-β1 0.13 nM, 18 hours) [%] | inhibition at 0.075 µM ([2]; peptide 75.0 nM, TGF-β1 0.13 nM, 18 hours) [%] | Compound |
| --- | --- | --- | --- | --- | --- | --- | --- | --- | --- | --- | --- | --- | --- |
| 1.26 | 8.5 | 15.8 | 36.3 | 70.4 | 89.3 | 96.9 |  |  |  |  |  |  | CC(C)[C@@H]1NC(=O)CN(CCc2ccccc2)C(=O)[C@H](CC(=O)O)NC(=O)[C@H](CC(=O)O)NC(=O)[C@H](Cc2ccncc2)NC(=O)[C@H](C(C)C)NC(=O)[C@H](CC(N)=O)NC(=O)[C@H](CCCCNC(=O)N(C)C[C@H](O)[C@@H](O)[C@H](O)[C@H](O)CO)NC(=O)[C@H](C(C)C)NC(=O)[C@H](Cc2cccc3ccccc23)NC(=O)[C@H](Cc2ccccc2)NC(=O)CSC[C@@H](C(=O)NCC(N)=O)NC(=O)[C@H](CCCCNC(=O)N2CCN(CC(=O)O)CC2)NC(=O)[C@H](Cc2c[nH]cn2)NC(=O)[C@H](Cc2ccc(O)cc2)NC(=O)[C@H](Cc2cccc3ccccc23)NC1=O [TGFb1_020] ({CH2CO}-F[1Nal]VK([CO-Meglumine])NV[4Pal]DD[Gly(NCH2CH2Ph)]V[1Nal]YHK([CO-Piperazinyl(4-CH2COOH)])CG-NH2; thioether N-16) |
|  |  |  |  |  |  |  | confirmed to have TGF-β binding activity | TGF-β antagonist activity | 19.7 | 69.7 | 98.1 | 101 | CC(C)[C@@H]1NC(=O)CN(CCc2ccccc2)C(=O)[C@H](CC(=O)O)NC(=O)[C@H](CC(=O)O)NC(=O)[C@H](Cc2ccc(O)cc2)NC(=O)[C@H](C(C)C)NC(=O)[C@H](CC(N)=O)NC(=O)[C@H](C(C)C)NC(=O)[C@H](C(C)C)NC(=O)[C@H](Cc2cccc3ccccc23)NC(=O)[C@H](Cc2ccccc2)NC(=O)CSC[C@@H](C(=O)NCC(N)=O)NC(=O)[C@H](C(C)C)NC(=O)[C@H](Cc2c[nH]cn2)NC(=O)[C@H](Cc2ccc(O)cc2)NC(=O)[C@H](Cc2cccc3ccccc23)NC1=O [TGFb1_001, F-Nal1-V-V-N-V-Y-D-D-PeG-V-Nal1-Y-H-V-C-G] ({CH2CO}-F[1Nal]VVNVYDD[Gly(NCH2CH2Ph)]V[1Nal]YHVCG-NH2; thioether N-16) |
| 1.41 | 5.21 | 11.3 | 30.2 | 61.6 | 87.8 | 96.4 |  |  |  |  |  |  | CC(C)[C@@H]1NC(=O)CN(CCc2ccccc2)C(=O)[C@H](CC(=O)O)NC(=O)[C@H](CC(=O)O)NC(=O)[C@H](Cc2ccncc2)NC(=O)[C@H](C(C)C)NC(=O)[C@H](CC(N)=O)NC(=O)[C@H](CCCCNC(=O)N2CCN(CC(=O)O)CC2)NC(=O)[C@H](C(C)C)NC(=O)[C@H](Cc2cccc3ccccc23)NC(=O)[C@H](Cc2ccccc2)NC(=O)CSC[C@@H](C(=O)NCC(N)=O)NC(=O)[C@H](CCCCNC(=O)N2CCN(CC(=O)O)CC2)NC(=O)[C@H](Cc2c[nH]cn2)NC(=O)[C@H](Cc2ccc(O)cc2)NC(=O)[C@H](Cc2cccc3ccccc23)NC1=O [TGFb1_019] ({CH2CO}-F[1Nal]VK([CO-Piperazinyl(4-CH2COOH)])NV[4Pal]DD[Gly(NCH2CH2Ph)]V[1Nal]YHK([CO-Piperazinyl(4-CH2COOH)])CG-NH2; thioether N-16) |
| 1.04 | 8.58 | 24.4 | 49.7 | 82.3 | 96 | 99.5 |  |  |  |  |  |  | CC(C)[C@@H]1NC(=O)CN(CCc2ccccc2)C(=O)[C@H](CCCCNC(=O)N(C)C[C@H](O)[C@@H](O)[C@H](O)[C@H](O)CO)NC(=O)[C@H](CC(=O)O)NC(=O)[C@H](Cc2ccncc2)NC(=O)[C@H](C(C)C)NC(=O)[C@H](CC(N)=O)NC(=O)[C@H](C(C)C)NC(=O)[C@H](C(C)C)NC(=O)[C@H](Cc2cccc3ccccc23)NC(=O)[C@H](Cc2ccccc2)NC(=O)CSC[C@@H](C(=O)NCC(N)=O)NC(=O)[C@H](CCCCNC(=O)N2CCN(CC(=O)O)CC2)NC(=O)[C@H](Cc2c[nH]cn2)NC(=O)[C@H](Cc2ccc(O)cc2)NC(=O)[C@H](Cc2cccc3ccccc23)NC1=O [TGFb1_023] ({CH2CO}-F[1Nal]VVNV[4Pal]DK([CO-Meglumine])[Gly(NCH2CH2Ph)]V[1Nal]YHK([CO-Piperazinyl(4-CH2COOH)])CG-NH2; thioether N-16) |

From patent publication US20250034212A1, “PEPTIDE” (PEPTIDREAM INC., priority 2021, published 2025)
